{"source": "the NIST ThermoML archive (doi:10.1021/acs.jced.5b00348)", "details": "for vapor or sublimation pressure: Liquid, Closed cell (Static) method", "note": "Several values for one entry are separate records, joined by “and”; a condition that tells them apart may be missing. Identical values can stand only once. Numbers after ± are expanded uncertainties."}
{"smiles": "FC(F)(F)/C=C/Cl", "note": "[(E)-1-chloro-3,3,3-trifluoroprop-1-ene]", "values": [{"measurement": "speed of sound", "setting": "419.56 K, 196.42 kPa, Gas", "result": "165.91 ± 0.026", "unit": "m/s"}, {"measurement": "speed of sound", "setting": "419.56 K, 196.56 kPa, Gas", "result": "165.91 ± 0.025 m/s and 165.91 ± 0.026 m/s"}, {"measurement": "speed of sound", "setting": "419.57 K, 196.49 kPa, Gas", "result": "165.9 ± 0.025 m/s and 165.9 ± 0.026 m/s"}, {"measurement": "speed of sound", "setting": "419.57 K, 196.51 kPa, Gas", "result": "165.9 ± 0.025", "unit": "m/s"}, {"measurement": "speed of sound", "setting": "419.57 K, 196.56 kPa, Gas", "result": "165.9 ± 0.025", "unit": "m/s"}, {"measurement": "speed of sound", "setting": "419.57 K, 196.57 kPa, Gas", "result": "165.9 ± 0.025", "unit": "m/s"}, {"measurement": "speed of sound", "setting": "419.57 K, 196.62 kPa, Gas", "result": "165.9 ± 0.025", "unit": "m/s"}, {"measurement": "speed of sound", "setting": "419.57 K, 196.63 kPa, Gas", "result": "165.91 ± 0.025", "unit": "m/s"}, {"measurement": "speed of sound", "setting": "419.58 K, 196.44 kPa, Gas", "result": "165.9 ± 0.026", "unit": "m/s"}, {"measurement": "speed of sound", "setting": "419.58 K, 196.51 kPa, Gas", "result": "165.9 ± 0.026", "unit": "m/s"}, {"measurement": "speed of sound", "setting": "419.58 K, 398.05 kPa, Gas", "result": "162.39 ± 0.024", "unit": "m/s"}, {"measurement": "speed of sound", "setting": "419.58 K, 398.07 kPa, Gas", "result": "162.39 ± 0.025", "unit": "m/s"}, {"measurement": "speed of sound", "setting": "419.58 K, 398.08 kPa, Gas", "result": "162.39 ± 0.025", "unit": "m/s"}, {"measurement": "speed of sound", "setting": "419.59 K, 803.55 kPa, Gas", "result": "154.82 ± 0.026", "unit": "m/s"}, {"measurement": "speed of sound", "setting": "419.59 K, 803.59 kPa, Gas", "result": "154.82 ± 0.026", "unit": "m/s"}, {"measurement": "speed of sound", "setting": "419.59 K, 803.61 kPa, Gas", "result": "154.82 ± 0.025", "unit": "m/s"}, {"measurement": "speed of sound", "setting": "419.59 K, 1212.4 kPa, Gas", "result": "146.32 ± 0.027", "unit": "m/s"}, {"measurement": "speed of sound", "setting": "419.6 K, 1212.4 kPa, Gas", "result": "146.32 ± 0.027", "unit": "m/s"}, {"measurement": "speed of sound", "setting": "419.6 K, 1723.5 kPa, Gas", "result": "133.88 ± 0.029 m/s and 133.89 ± 0.029 m/s"}, {"measurement": "speed of sound", "setting": "419.61 K, 2072 kPa, Gas", "result": "123.58 ± 0.033", "unit": "m/s"}, {"measurement": "speed of sound", "setting": "419.61 K, 2072.1 kPa, Gas", "result": "123.58 ± 0.033", "unit": "m/s"}, {"measurement": "speed of sound", "setting": "419.62 K, 2072.1 kPa, Gas", "result": "123.58 ± 0.033", "unit": "m/s"}, {"measurement": "speed of sound", "setting": "419.63 K, 2072.3 kPa, Gas", "result": "123.59 ± 0.033", "unit": "m/s"}, {"measurement": "speed of sound", "setting": "419.65 K, 2072.5 kPa, Gas", "result": "123.6 ± 0.033", "unit": "m/s"}, {"measurement": "speed of sound", "setting": "419.67 K, 2072.7 kPa, Gas", "result": "123.61 ± 0.033", "unit": "m/s"}, {"measurement": "speed of sound", "setting": "419.68 K, 2072.8 kPa, Gas", "result": "123.62 ± 0.033", "unit": "m/s"}, {"measurement": "speed of sound", "setting": "419.69 K, 2072.8 kPa, Gas", "result": "123.62 ± 0.033", "unit": "m/s"}, {"measurement": "speed of sound", "setting": "419.69 K, 2072.9 kPa, Gas", "result": "123.63 ± 0.03", "unit": "m/s"}, {"measurement": "mass density", "setting": "419.9 K, 1457.6 kPa, Gas", "result": "67.627 ± 0.024", "unit": "kg/m3"}, {"measurement": "mass density", "setting": "419.92 K, 1771.2 kPa, Gas", "result": "87.947 ± 0.029", "unit": "kg/m3"}, {"measurement": "mass density", "setting": "419.94 K, 4667.5 kPa, Fluid (supercritical or subcritical phases)", "result": "898.26 ± 0.22", "unit": "kg/m3"}, {"measurement": "mass density", "setting": "419.95 K, 2831.8 kPa, Fluid (supercritical or subcritical phases)", "result": "841.35 ± 0.42", "unit": "kg/m3"}, {"measurement": "mass density", "setting": "419.99 K, 510 kPa, Gas", "result": "20.295 ± 0.015", "unit": "kg/m3"}, {"measurement": "mass density", "setting": "420 K, 508.9 kPa, Gas", "result": "20.248 ± 0.014", "unit": "kg/m3"}, {"measurement": "mass density", "setting": "420 K, 645.1 kPa, Gas", "result": "26.148 ± 0.015 kg/m3 and 26.149 ± 0.015 kg/m3"}, {"measurement": "vapor or sublimation pressure", "setting": "420 K", "result": "2589.3 ± 4.1", "unit": "kPa"}, {"measurement": "mass density", "setting": "424.94 K, 3746.2 kPa, Fluid (supercritical or subcritical phases)", "result": "841 ± 0.33", "unit": "kg/m3"}, {"measurement": "vapor or sublimation pressure", "setting": "424.98 K", "result": "2823.8 ± 4.4", "unit": "kPa"}, {"measurement": "mass density", "setting": "429.9 K, 1513.1 kPa, Gas", "result": "67.627 ± 0.029", "unit": "kg/m3"}, {"measurement": "mass density", "setting": "429.9 K, 1847.8 kPa, Gas", "result": "87.931 ± 0.03", "unit": "kg/m3"}, {"measurement": "vapor or sublimation pressure", "setting": "429.91 K", "result": "3073.2 ± 4.8", "unit": "kPa"}, {"measurement": "mass density", "setting": "429.94 K, 3475.7 kPa, Fluid (supercritical or subcritical phases)", "result": "782.51 ± 0.21", "unit": "kg/m3"}, {"measurement": "mass density", "setting": "429.94 K, 4675.4 kPa, Fluid (supercritical or subcritical phases)", "result": "840.63 ± 0.21", "unit": "kg/m3"}, {"measurement": "vapor or sublimation pressure", "setting": "429.98 K", "result": "3076.8 ± 4.8", "unit": "kPa"}, {"measurement": "mass density", "setting": "430 K, 530.5 kPa, Gas", "result": "20.558 ± 0.014", "unit": "kg/m3"}, {"measurement": "mass density", "setting": "430 K, 669.6 kPa, Gas", "result": "26.403 ± 0.015", "unit": "kg/m3"}, {"measurement": "vapor or sublimation pressure", "setting": "434.91 K", "result": "3346 ± 5.2", "unit": "kPa"}, {"measurement": "mass density", "setting": "434.94 K, 4229.4 kPa, Fluid (supercritical or subcritical phases)", "result": "782.14 ± 0.33", "unit": "kg/m3"}, {"measurement": "vapor or sublimation pressure", "setting": "434.97 K", "result": "3349.8 ± 5.2", "unit": "kPa"}, {"measurement": "vapor or sublimation pressure", "setting": "435.91 K", "result": "3403.5 ± 5.3", "unit": "kPa"}, {"measurement": "vapor or sublimation pressure", "setting": "437.91 K", "result": "3521 ± 5.5", "unit": "kPa"}, {"measurement": "mass density", "setting": "439.89 K, 1922.8 kPa, Gas", "result": "87.898 ± 0.03", "unit": "kg/m3"}, {"measurement": "mass density", "setting": "439.9 K, 1568.8 kPa, Gas", "result": "67.676 ± 0.025", "unit": "kg/m3"}, {"measurement": "mass density", "setting": "439.95 K, 1137.4 kPa, Gas", "result": "46.158 ± 0.031", "unit": "kg/m3"}, {"measurement": "mass density", "setting": "439.95 K, 1568.5 kPa, Gas", "result": "67.645 ± 0.024", "unit": "kg/m3"}, {"measurement": "mass density", "setting": "440 K, 255.4 kPa, Gas", "result": "9.339 ± 0.018", "unit": "kg/m3"}, {"measurement": "mass density", "setting": "440 K, 550.9 kPa, Gas", "result": "20.806 ± 0.014", "unit": "kg/m3"}, {"measurement": "mass density", "setting": "440 K, 551.6 kPa, Gas", "result": "20.832 ± 0.035", "unit": "kg/m3"}, {"measurement": "mass density", "setting": "440 K, 694.2 kPa, Gas", "result": "26.651 ± 0.016", "unit": "kg/m3"}, {"measurement": "mass density", "setting": "440 K, 694.3 kPa, Gas", "result": "26.653 ± 0.015", "unit": "kg/m3"}, {"measurement": "mass density", "setting": "443.94 K, 475.9 kPa, Fluid (supercritical or subcritical phases)", "result": "17.642 ± 0.19", "unit": "kg/m3"}, {"measurement": "mass density", "setting": "443.94 K, 547.2 kPa, Fluid (supercritical or subcritical phases)", "result": "20.44 ± 0.2", "unit": "kg/m3"}, {"measurement": "mass density", "setting": "443.94 K, 1352.4 kPa, Fluid (supercritical or subcritical phases)", "result": "55.612 ± 0.23", "unit": "kg/m3"}, {"measurement": "mass density", "setting": "443.94 K, 1768.1 kPa, Fluid (supercritical or subcritical phases)", "result": "77.205 ± 0.28", "unit": "kg/m3"}, {"measurement": "mass density", "setting": "443.94 K, 2074.3 kPa, Fluid (supercritical or subcritical phases)", "result": "95.28 ± 0.28", "unit": "kg/m3"}, {"measurement": "mass density", "setting": "443.94 K, 2390.8 kPa, Fluid (supercritical or subcritical phases)", "result": "116.63 ± 0.35", "unit": "kg/m3"}, {"measurement": "mass density", "setting": "443.94 K, 2690.9 kPa, Fluid (supercritical or subcritical phases)", "result": "140.42 ± 0.35", "unit": "kg/m3"}, {"measurement": "mass density", "setting": "443.94 K, 2893.8 kPa, Fluid (supercritical or subcritical phases)", "result": "159.35 ± 0.37", "unit": "kg/m3"}, {"measurement": "mass density", "setting": "443.94 K, 3102.5 kPa, Fluid (supercritical or subcritical phases)", "result": "182.38 ± 0.5", "unit": "kg/m3"}, {"measurement": "mass density", "setting": "443.94 K, 3197.9 kPa, Fluid (supercritical or subcritical phases)", "result": "194.61 ± 0.51", "unit": "kg/m3"}, {"measurement": "mass density", "setting": "443.94 K, 3199.8 kPa, Fluid (supercritical or subcritical phases)", "result": "194.61 ± 0.51", "unit": "kg/m3"}, {"measurement": "mass density", "setting": "443.94 K, 3703.8 kPa, Fluid (supercritical or subcritical phases)", "result": "306.77 ± 0.63", "unit": "kg/m3"}, {"measurement": "mass density", "setting": "443.94 K, 3908.6 kPa, Fluid (supercritical or subcritical phases)", "result": "504.42 ± 1.5", "unit": "kg/m3"}, {"measurement": "mass density", "setting": "443.95 K, 3858 kPa, Fluid (supercritical or subcritical phases)", "result": "426.27 ± 1.3", "unit": "kg/m3"}, {"measurement": "mass density", "setting": "443.95 K, 4009.4 kPa, Fluid (supercritical or subcritical phases)", "result": "593.8 ± 1.2", "unit": "kg/m3"}, {"measurement": "mass density", "setting": "443.95 K, 4514.9 kPa, Fluid (supercritical or subcritical phases)", "result": "704.98 ± 0.26", "unit": "kg/m3"}, {"measurement": "mass density", "setting": "443.95 K, 5618.8 kPa, Fluid (supercritical or subcritical phases)", "result": "781.53 ± 0.23", "unit": "kg/m3"}]}
